Laboratory results: paper PMC10985088, “Synthesis and biological evaluation of echinomycin analogues as potential colon cancer agent” (Scientific Reports, 2024)
Like-named read-outs stand apart in the source and are kept apart here.

What was measured:
[1] = Hepatic microsomal stability assay, mouse; type: in vitro ADME; conditions: microsomes, 1 μM, 0.2 mg/mL microsomes, 37 °C, 30 min
Description: Before investigating the in vivo efficacy of 3, its metabolic stability was evaluated by treatment with human or mouse liver microsomes at 37 °C for 30 min, and the remaining analogues were analyzed by LC–MS/MS (Table 3). […] This means that approximately 67% of 3 was unaffected by human liver microsomes.
Basically, the analysis was performed using methods previously reported. Disappearance of the parent compound over time was measured by using the amount of drug at time zero as a reference. After 5 min of preincubation, 1 mM NADPH (final concentration, the same applies to the following, NADPH( +)) or 0.1 M phosphate buffer (pH 7.4, NADPH(−))) was added to a mixture containing 1 μM of the test compound, 0.2 mg/mL of human or mouse liver microsomes (Sekisui XenoTech LLC (Kansas City, KS)), 1 mM EDTA and 0.1 M phosphate buffer (pH 7.4) and incubated at 37 °C for 30 min by rotation at 60 rpm. An aliquot of 50 μL of the incubation mixture was sampled and added to 250 μL of chilled acetonitrile/internal standard (IS). After centrifuging for 15 min at 3150×g (4 °C), the supernatants were analyzed by LC–MS/MS. Hepatic microsomal stability (mL/min/kg, CLint) was calculated according to the previous report, using 48.8 and 45.4 mg MS protein/g liver and 25.7 and 87.5 g liver/kg body weight as scaling factors for human and mouse, respectively.
Basically, the analysis was performed using methods previously reported. An LC-MS8060 instrument equipped with a Shimadzu Nexera series LC system (Shimadzu, Kyoto, Japan) was used. All compounds were analyzed in multi-reaction monitoring mode under electron spray ionization conditions. The analytical column used was a […] C18 MGIII (3 μm × 2.0 mmID × 35 mm; OSAKA SODA, Osaka, Japan) at 50 °C. The gradient mobile phase consisted of 0.1% formic acid in water (mobile phase A,) and 0.1% formic acid in acetonitrile (mobile phase B) at a total flow rate of 1 mL/min. The initial mobile phase composition was 10% B, which was held constant for 0.2 min, increased in a linear fashion to 90% B over 1 min, then held constant for 0.8 min, and finally brought back to the initial condition of 10% B over 0.01 min and re-equilibrated for 1 min. The transitions (precursor ion > product ion) of echinomycin, 3 and IS (methyl testosterone) are 1101.45 > 1053.5 (positive), 1083.5 > 523.95 (negative), and 303.1 > 109.1 (positive), respectively.

[2] = test system: HIF-1α-mediated transcription; assay: HRE reporter gene assay in SW620 cells overexpressing HIF-1α; type: cell-based, human; conditions: SW620 transiently overexpressing HIF-1α, 16 h
From the text: Echinomycin is known to inhibit the HIF-1 pathway by inhibiting the binding of HIF-1α to HRE[15],[21],[22]. The ability of 3 to inhibit HIF-1α-mediated transcription was investigated by using an HRE reporter gene assay in SW620 cells transiently overexpressing HIF-1α.
Figure 5 Effect of echinomycin (1), 2 and 3 on HIF-1α-dependent transcription in SW620 cells. SW620 cells were transiently transfected with empty vector pCI-neo-3 × FLAG or HIF-1α expression vector pCI-neo-3 × FLAG-HIF-1α, together with pGL3-5 × HRE-Luc and pGL4.75 [hRluc/CMV]. One day after transfection, echinomycin (1), 2, or 3 was added to the cell culture media and incubated for an additional 16 h. The cells were lysed, and a dual luciferase assay was performed. Firefly luciferase activity was normalized to Renilla luciferase activity, and the data are presented as fold induction relative to the values obtained in cells DMSO-treated cells transfected with empty vector. The error bars represent standard deviations (n = 3). *P < 0.05 and **P < 0.01 compared to DMSO-treated cells transfected with HIF-1α (Student’s test).
Basically, the assay was performed using methods previously reported by our group. […]

[3] = Investigation of maximum tolerated dose (body weight of mice); type: in vivo, mouse; conditions: 14 days
Description: (§1) Toxicity Body weight change is an indicator of systemic toxicity. Accordingly, the body weights of mice intraperitoneally treated with different doses (0.04 and 0.4 µg/mouse) of either 1 or 3 were measured (Fig. S1). […] A blood hematological examination (including nineteen parameters) was also conducted on these mice on Day 14 (Fig. S2). There were no significant changes in almost any of the parameters in the mice treated with either 1 or 3 at doses of 0.04 or 0.4 µg/mouse.

[4] = Serum biochemistry / blood examination of treated mice; type: in vivo; conditions: 0.4 µg/mouse i.p., Day 14
Description: as §1
Male BALB/c mice (7 weeks old) were purchased from Charles River Laboratories Japan, Inc. Each compound was intraperitoneally injected daily for 14 days. […] Serum was collected by centrifuging blood at 5000 rpm for 10 min. Biochemistry was performed in Oriental Yeast Co., Ltd, Japan.

For `CS[C@H]1SC[C@H]2C(=O)N(C)[C@@H](C(C)C)C(=O)OC[C@@H](NC(=O)c3cnc4ccccc4n3)C(=O)N[C@@H](C)C(=O)N(C)[C@@H]1C(=O)N(C)[C@@H](C(C)C)C(=O)OC[C@@H](NC(=O)c1cnc3ccccc3n1)C(=O)N[C@@H](C)C(=O)N2C` [Compound 1, Echinomycin], the CLint scaled ([1]; NADPH(+), read-out: Metabolic stability (CLint) Mouse NADPH(+)) was less than 69.8 mL/min/kg, the CLint scaled ([1]; NADPH(−), read-out: Metabolic stability (CLint) Mouse NADPH(−)) was less than 69.8 mL/min/kg and the “HIF-1α-induced HRE reporter activity” value [2] was “inhibited”. The body weight ([3]; i.p. 0.04 and 0.4 µg/mouse, daily) was “did not differ greatly from those of the control”, the “dose up to which no significant toxicity is shown” value ([3]; i.p. daily, body weight and blood examination) was no less than 0.04 µg/mouse and the “alanine aminotransferase (ALT)” value [4] was “increase”. For the same compound, the “aspartate aminotransferase (AST)” value [4] was “increase”, the “lactate dehydrogenase (LDH)” value [4] was “increase” and the “total bilirubin (T-BIL)” value [4] was “decrease”.
